The target of assay [1] is mouse muscle-type nicotinic receptors (Mus musculus, UniProt P02716+P04756+P09690). Put plainly: Efficacy enhancement on other nicotinic receptors. It is filed as cell-based.
For the next assay, the system named is α7-nicotinic receptor. The assay is described as follows: Two-electrode voltage-clamp current recording from Xenopus oocytes expressing α7-nicotinic receptors. It is filed as cell-based, human, rat and chick. As for the experimental part: (a) Xenopus Oocyte Current Recording
The Xenopus oocyte has provided a powerful means of assessing the function of proteins thought to be subunits of ligand-gated ion-channels.
Consequently, one convenient technique to assess the enhancement of nicotinic efficacy is two-electrode voltage-clamp recording from Xenopus oocytes expressing α7-nicotinic receptors from cRNA.
Oocytes were removed to OR2 solution (82 mM NaCl, 2.5 mM KCl, 5 mM HEPES, 1.5 mM NaH2PO4, 1 mM MgCl2, 0.1 mM EDTA; pH 7.4). The oocytes were defolliculated by incubation in 25 ml OR2 containing 0.2% collagenase 1A (Sigma) two times for 60 min on a platform vibrating at 1 Hz and stored in Leibovitz's L-15 medium (50 μg/ml gentomycin, 10 Units/ml penicillin, and 10 μg/ml streptomycin). Approximately 50 ng of cRNA was injected in each oocyte the following day. cRNA was synthesised from cDNA using Message Machine (purchased from Abion).
The external recording solution consisted of 90 mM NaCl, 1 mM KCl, 1 mM MgCl2, 1 mM BaCl2, 5 mM HEPES; pH 7.4. […] Oocytes were impaled with two electrodes of 1-2 MΩ tip resistance when filled with 3M KCl. Recordings were begun when membrane potential became stable at potentials negative to −20 mV (resting membrane potentials are less negative when Ba^++ replaces Ca^++ in bathing solutions). Membrane potential was clamped at −80 mV.
Current amplitude was measured from baseline to peak. EC50 values, maximal effect, and Hill slopes were estimated by fitting the data to the logistic equation using GraphPad Prism (GraphPad Software, Inc., San Diego, Calif.).
Increases in agonist efficacy elicited by a positive modulator can be calculated in two ways: • (1) As percent potentiation of current amplitude which is defined as 100(Im−Ic)/Ic where Im is current amplitude in the presence of modulator and Ic is current in the absence of modulator (FIG. 1). • (2) As percent potentiation of “area under curve” of an agonist trace. Area under the curve is a common representation of the total ion flux through the channel (FIG. 2).
Background: In two-electrode clamp one electrode senses voltage and the other passes current.

Another assay has as its system 5-HT3 receptors. The note with it: unpublished results / in press; cited from earlier work.
A further assay addresses nAChR α7 (Homo sapiens, UniProt P36544). Conditions: FIG. 6.

Read-outs that look alike come from different tables or passages of the source.

nAChR α7, sequence (P36544 23-502): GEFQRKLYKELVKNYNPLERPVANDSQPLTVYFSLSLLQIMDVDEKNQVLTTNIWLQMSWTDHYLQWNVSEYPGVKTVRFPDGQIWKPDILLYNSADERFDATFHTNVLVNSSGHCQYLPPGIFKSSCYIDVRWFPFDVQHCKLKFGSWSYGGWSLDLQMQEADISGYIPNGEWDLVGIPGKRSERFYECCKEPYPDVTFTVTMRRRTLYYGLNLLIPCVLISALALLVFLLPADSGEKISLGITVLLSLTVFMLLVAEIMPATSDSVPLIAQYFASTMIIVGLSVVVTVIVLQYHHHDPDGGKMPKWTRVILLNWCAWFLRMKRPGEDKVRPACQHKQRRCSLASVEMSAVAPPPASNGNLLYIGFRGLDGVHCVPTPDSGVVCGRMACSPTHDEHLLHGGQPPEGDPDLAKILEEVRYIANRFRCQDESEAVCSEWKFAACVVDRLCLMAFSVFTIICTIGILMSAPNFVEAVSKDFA
mouse muscle-type nicotinic receptors, sequence (P04756 21-457): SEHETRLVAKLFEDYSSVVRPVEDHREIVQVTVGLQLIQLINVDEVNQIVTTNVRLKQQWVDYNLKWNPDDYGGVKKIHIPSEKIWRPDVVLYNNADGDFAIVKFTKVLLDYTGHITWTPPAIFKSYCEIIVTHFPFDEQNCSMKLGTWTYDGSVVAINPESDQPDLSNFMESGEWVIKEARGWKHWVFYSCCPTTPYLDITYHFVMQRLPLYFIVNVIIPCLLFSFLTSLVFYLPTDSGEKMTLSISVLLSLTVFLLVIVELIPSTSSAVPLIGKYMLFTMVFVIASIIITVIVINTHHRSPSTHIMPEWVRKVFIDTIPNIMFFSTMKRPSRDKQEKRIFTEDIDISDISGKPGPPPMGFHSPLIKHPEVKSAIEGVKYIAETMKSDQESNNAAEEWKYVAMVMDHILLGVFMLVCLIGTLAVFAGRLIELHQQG
mouse muscle-type nicotinic receptors, sequence (P09690 24-501): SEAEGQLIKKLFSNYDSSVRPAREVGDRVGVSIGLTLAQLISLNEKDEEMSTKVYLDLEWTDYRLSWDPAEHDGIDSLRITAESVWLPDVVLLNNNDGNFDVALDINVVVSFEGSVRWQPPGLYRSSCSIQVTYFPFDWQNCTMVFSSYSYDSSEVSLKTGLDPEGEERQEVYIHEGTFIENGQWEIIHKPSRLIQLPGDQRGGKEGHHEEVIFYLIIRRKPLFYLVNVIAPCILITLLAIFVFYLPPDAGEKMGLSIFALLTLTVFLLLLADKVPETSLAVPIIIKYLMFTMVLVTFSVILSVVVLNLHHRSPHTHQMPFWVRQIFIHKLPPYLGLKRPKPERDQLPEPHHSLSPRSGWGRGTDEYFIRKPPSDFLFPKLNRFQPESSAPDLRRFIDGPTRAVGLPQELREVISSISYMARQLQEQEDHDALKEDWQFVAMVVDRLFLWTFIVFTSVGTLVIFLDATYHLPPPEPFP
mouse muscle-type nicotinic receptors, sequence (P02716 25-520): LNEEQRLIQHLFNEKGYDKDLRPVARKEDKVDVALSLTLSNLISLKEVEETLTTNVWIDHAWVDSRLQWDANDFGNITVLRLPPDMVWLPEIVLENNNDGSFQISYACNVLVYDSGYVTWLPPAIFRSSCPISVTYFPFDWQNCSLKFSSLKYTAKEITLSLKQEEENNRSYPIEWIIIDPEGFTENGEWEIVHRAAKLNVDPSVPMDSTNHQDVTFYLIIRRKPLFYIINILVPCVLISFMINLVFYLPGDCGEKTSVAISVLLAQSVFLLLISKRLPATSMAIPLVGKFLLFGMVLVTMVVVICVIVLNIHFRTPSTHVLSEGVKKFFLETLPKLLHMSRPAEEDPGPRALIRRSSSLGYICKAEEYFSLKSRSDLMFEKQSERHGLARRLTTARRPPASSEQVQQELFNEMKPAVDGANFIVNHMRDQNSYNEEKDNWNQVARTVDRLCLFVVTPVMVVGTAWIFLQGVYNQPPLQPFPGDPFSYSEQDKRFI
Experimental for nAChR α7: To screen for α7 modulatory activity, the 96 well plate is placed in a fluorescence imaging plate reader (FLIPR) and test compounds along with an α7 agonist are applied simultaneously to all wells. Receptor activation is measured by calcium influx into cells which is quantified by the increase in fluorescence intensity of each well, recorded simultaneously by the FLIPR. A modulatory effect is determined by the increase in fluorescence over that of agonist alone. Similarly, to test for nAChR α7 agonist activity, test compounds along with an α7 modulator are applied simultaneously to all wells. Receptor activation is measured by calcium influx into cells which is quantified by the increase in fluorescence intensity of each well, recorded simultaneously by the FLIPR. An agonist effect is determined by the increase in fluorescence over that of modulator alone.
Effect of nAChR α7 modulator on agonist activity was measured by Ca^2+ flux through nAChR α7 expressed in HEK-293 cells. The nicotinic agonist (−)-Spiro[1-Azabicyclo[2.2.2.]Octane-3,5*-Oxazolidine]-2*-One, was used.

For `Oc1ccc2[nH]ccc2c1` [5-hydroxyindole], the “increase in efficacy on other nicotinic receptors” value in assay [1] is recorded as “not seen on any other nicotinic receptors”. Further, in the assay with α7-nicotinic receptor (0.5 mM 5-OHi, saturating agonist (3 mM ACh), 1 second agonist application, FIG. 4), the “increase in area under the curve” value is roughly 400%. In the assay with α7-nicotinic receptor (5-hydroxyindole 500 μM against a range of ACh concentrations, FIG. 3), the “increase of maximal response to ACh (maximum amplitude)” value is 2 fold. For the same compound, in the assay with α7-nicotinic receptor (general statement), the “increase in efficacy of agonists at nicotinic receptors” value is “greater than 2 fold”. For the same compound, the “increase in efficacy of various nicotinic agonists afforded by 5-hydroxyindole” value with α7-nicotinic receptor (modulator 1 mM 5-OHi, ACh 3 mM, AR-R 17779 100 μM, FIG. 5) was “seen with all nicotinic agonists tested”. In the assay on α7-nicotinic receptor (no agonist, oocytes injected with cRNA for α7 nicotinic receptors), the “current induced when applied by itself” value is recorded as “did not induce current”.
In the case of `NCCc1c[nH]c2ccc(O)cc12` [serotonin], the “positive modulation on ACh activity (efficacy enhancing activity)” value in the assay on α7-nicotinic receptor is recorded as “did not increase efficacy”; in the assay on α7-nicotinic receptor (listed as 5-HT), “unable to reproduce the finding that 5-HT increases activity”.
Turning to `NCC(=O)O` [Glycine], the “effect on 5-HT3 receptors” value in the assay on 5-HT3 receptors was “no effect”.
With `NS(=O)(=O)c1cc2c(cc1Cl)NC(C1CC3C=CC1C3)NS2(=O)=O` (stereo not drawn) [cyclothiazide], the “effect on 5-HT3 receptors” value with 5-HT3 receptors is listed as “block 5-HT3 receptors”.
As for `O=C1NCC2(CN3CCC2CC3)O1` (single isomer, unassigned; (-)), the “agonist activity as Ca2+ flux signal, agonist alone” value at nAChR α7 (no modulator) is “No discernible signal”. The “agonist activity as Ca2+ flux signal, agonist together with modulator” value on nAChR α7 (with nAChR α7 modulator) is “significant increase in agonist activity”.

Source of the values: US6861443B2, “Positive modulators of nicotinic receptors” (Astra AB, priority 1998, dated 2005).
